Experiments:
Assay type in all cases: in vivo
[1] = tested on: Spodoptera littoralis (Egyptian cotton leafworm); experiment: Example B1: Activity against Spodoptera littoralis (larvicide, feeding/residual contact activity, preventive), cotton leaf discs; conditions: foliar, 72 h, L1 larvae on cotton leaf discs, 3 days after treatment
From the text: Activity Against Spodoptera littoralis (Egyptian Cotton Leafworm)
(Larvicide, Feeding/Residual Contact Activity, Preventive)
The samples are checked for mortality, repellent effect, feeding behaviour, and growth regulation 3 days after treatment. In this test, compounds listed in Table P above show good activity. In particular compounds P.1, P.2, P.3, P.4, P.5, P.6, P.7, P.8, P.9, P.10, P.11, P.12, P.13, P.14, P.15, P.16, P.17, P.18, P.19, P.20, P.21, P.22, P.23, P.24, P.25, P.26, P.27, P.28, P.29, P.30, P.31, P.32, P.33, P.34, P.35, P.36, P.37, P.38, P.39, P.40, P.41, P.42, P.43, P.44, P.46, P.50, P.51, P.52, P.55, P.56, P.57, P.58, P.59, P.60, P61, P.66, P.67, P.68, P.69, P.70, P.71, P.72, P.73, P.74, P.75, P.76, P.77, P.78, P.83, P.84, P.87 and P.88 show an activity of over 80% at a concentration of 400 ppm.

[2] = tested on: Heliothis virescens (tobacco budworm); experiment: Example B2: Activity against Heliothis virescens (ovo-larvicide, feeding/contact activity, curative), eggs on artificial diet; conditions: 96 h, 4 days incubation
Description: Activity Against Heliothis virescens (Tobacco Budworm) (Ovo-Larvicide, Feeding/Contact Activity, Curative) Eggs (0-24 h old) are placed in 24-well microtiter plate on artificial diet and treated with test solutions by pipetting. After an incubation period of 4 days, samples are checked for egg mortality, larval mortality, and growth regulation.

[3] = tested on: Plutella xylostella (diamond back moth); experiment: Example B3: Plutella xylostella (larvicide, feeding/residual contact activity, preventive), artificial diet MTP; conditions: 120 h, L2 larvae on artificial diet, 5 days incubation
Description: (§1) Plutella xylostella (Diamond Back Moth) (Larvicide, Feeding/Residual Contact Activity, Preventive) 24-well microtiter plate (MTP) with artificial diet is treated with test solutions by pipetting. After drying, the MTP's are infested with larvae (L2) (10-15 per well). After an incubation period of 5 days, samples are checked for larval mortality, antifeedant and growth regulation.

[4] = tested on: Diabrotica balteata (corn root worm); experiment: Example B4: Diabrotica balteata (larvicide, feeding/residual contact activity, preventive), artificial diet MTP; conditions: 120 h, L2 larvae on artificial diet, 5 days incubation
Description: as §1, with “Diabrotica balteata (Corn Root Worm)” for “Plutella xylostella (Diamond Back Moth)”, “(6-10” for “(10-15”

Measured: pest or weed control at 400 ppm

Cc1cc2c(c(C(=O)NCC3CC3)c1NC(=O)c1cc(C(F)(F)F)nn1-c1ncccc1Cl)OC(F)(F)O2 [P.46]
> 80%: all assays above

CNC(=O)c1c(NC(=O)c2cc(OC)nn2-c2ncccc2Cl)c(Br)cc2c1OC(F)(F)O2 [P.39]
> 80%: all assays above

O=C(NC1(C2CC2)CC1)c1c(NC(=O)c2cc(Cl)nn2-c2ncccc2Cl)c(Cl)cc2c1OCO2 [P.6]
> 80%: all assays above

CC(C)NC(=O)c1c(NC(=O)c2cc(Br)nn2-c2ncccc2Cl)c(Cl)cc2c1C(O)CC2 (stereo not shown) [P.54]
> 80%: [2] | [3] | [4]

Cc1cc2c(c(C(=O)NC(C)C)c1NC(=O)c1cc(C(F)(F)F)nn1-c1ncccc1Cl)OCO2 [P.67, 5-methyl-6-{[2-(3-chloro-pyridin-2-yl)-5-trifluoromethyl-2H-pyrazole-3-carbonyl]-amino}-2,4-dioxolane-benzoic acid isopropylamide]
> 80%: all assays above

Cc1cc2c(c(C(=O)NC3(C4CC4)CC3)c1NC(=O)c1cc(C(F)(F)F)nn1-c1ncccc1Cl)OCO2 [P.69]
> 80%: all assays above

O=C(NC1(C2CC2)CC1)c1c(NC(=O)c2cc(Br)nn2-c2ncccc2Cl)c(Cl)cc2c1OCO2 [P.11]
> 80%: all assays above

CNC(=O)c1c(NC(=O)c2cc(Br)nn2-c2ncccc2Cl)c(Br)cc2c1OC(F)(F)O2 [P.41]
> 80%: all assays above

CC(C)NC(=O)c1c(NC(=O)c2cc(C(F)F)nn2-c2ncccc2Cl)c(Cl)cc2c1OCO2 [P.4]
> 80%: all assays above

CC(C)NC(=O)c1c(NC(=O)c2cc(C(F)(F)F)nn2-c2ncccc2Cl)c(Cl)cc2c1C(O)CC2 (stereo not shown) [P.48]
> 80%: [3]

Cc1cc2c(c(C(=O)NC(C)C)c1NC(=O)c1cc(C(F)(F)F)nn1-c1ncccc1Cl)OC(F)(F)O2 [P.44]
> 80%: all assays above

CC(C)NC(=O)c1c(NC(=O)c2cc(Br)nn2-c2ncccc2Cl)c(Cl)cc2c1C(F)CC2 (stereo not shown) [P.56]
> 80%: [1] | [2] | [3]

CNC(=O)c1c(NC(=O)c2cc(OC)nn2-c2ncccc2Cl)c(C)cc2c1OC(F)(F)O2 [P.35]
> 80%: [1] | [2] | [3]

CC(C)NC(=O)c1c(NC(=O)c2cc(C(F)F)nn2-c2ncccc2Cl)c(Br)cc2c1OC(C)C2 (stereo not shown) [P.84]
> 80%: [1] | [2] | [3]

CC(C)NC(=O)c1c(NC(=O)c2cc(Br)nn2-c2ncccc2Cl)c(Cl)cc2c1OCO2 [P.10]
> 80%: all assays above

CC1Cc2ccc(NC(=O)c3cc(Br)nn3-c3ncccc3Cl)c(C(=O)NC3CC3)c2S1(=O)=O (stereo not shown) [P.61]
> 80%: [1] | [2] | [3]

Cc1cc2c(c(C(=O)NC3(C4CC4)CC3)c1NC(=O)c1cc(Cl)nn1-c1ncccc1Cl)OC(F)(F)O2 [P.32]
> 80%: all assays above

CC(C)NC(=O)c1c(NC(=O)c2cc(C(F)(F)F)nn2-c2ncccc2Cl)c(Cl)cc2c1OCO2 [P.1]
> 80%: all assays above

CC(C)NC(=O)c1c(NC(=O)c2cc(C(F)(F)F)nn2-c2ncccc2Cl)c(Cl)cc2c1/C(=N/O)CC2 [P.52]
> 80%: [1] | [2] | [3]

COc1cc(C(=O)Nc2c(C)cc3c(c2C(=O)NC(C)C)OC(F)(F)O3)n(-c2ncccc2Cl)n1 [P.36]
> 80%: all assays above

O=C(NC1(C2CC2)CC1)c1c(NC(=O)c2cc(Br)nn2-c2ncccc2Cl)c(Cl)cc2c1C(F)CC2 (stereo not shown) [P.55]
> 80%: [1] | [2] | [3]

Cc1cc2c(c(C(=O)NC(C)(C)C)c1NC(=O)c1cc(C(F)F)nn1-c1ncccc1Cl)OCO2 [P.73]
> 80%: all assays above

CCNC(=O)c1c(NC(=O)c2cc(OCC(F)(F)F)nn2-c2ncccc2Cl)c(Cl)cc2c1OCO2 [P.58]
> 80%: [1] | [2] | [3]

CC(C)NC(=O)c1c(NC(=O)c2cc(Br)nn2-c2ncccc2Cl)c(Br)cc2c1S(=O)(=O)C(C)C2 (stereo not shown) [P.87]
> 80%: [1] | [2] | [3]

COc1cc(C(=O)Nc2c(Cl)cc3c(c2C(=O)NC2(C4CC4)CC2)OCO3)n(-c2ncccc2Cl)n1 [P.7]
> 80%: [1] | [2] | [3]

CCNC(=O)c1c(NC(=O)c2cc(Cl)nn2-c2ncccc2Cl)c(Cl)cc2c1OCO2 [P.8]
> 80%: all assays above

Cc1cc2c(c(C(=O)NC3(C4CC4)CC3)c1NC(=O)c1cc(Br)nn1-c1ncccc1Cl)OC(F)(F)O2 [P.28]
> 80%: all assays above

CNC(=O)c1c(NC(=O)c2cc(C(F)(F)F)nn2-c2ncccc2Cl)c(C)cc2c1OC(F)(F)O2 [P.43]
> 80%: all assays above

CCNC(=O)c1c(NC(=O)c2cc(C(F)F)nn2-c2ncccc2Cl)c(C)cc2c1OCO2 [P.72]
> 80%: [1] | [2] | [3]

O=C1CCc2cc(Cl)c(NC(=O)c3cc(Br)nn3-c3ncccc3Cl)c(C(=O)NC3(C4CC4)CC3)c21 [P.53]
> 80%: [3]

CC(C)NC(=O)c1c(NC(=O)c2cc(C(F)(F)F)nn2-c2ncccc2Cl)c(Cl)cc2c1C(F)CC2 (stereo not shown) [P.49]
> 80%: [2] | [3] | [4]

CNC(=O)c1c(NC(=O)c2cc(Cl)nn2-c2ncccc2Cl)c(Cl)cc2c1OCO2 [P.9]
> 80%: [1] | [2] | [3]

CCc1cc2c(c(C(=O)NC)c1NC(=O)c1cc(Br)nn1-c1ncccc1Cl)OC(F)(F)O2 [P.33]
> 80%: [1] | [2] | [3]

CNC(=O)c1c(NC(=O)c2cc(Br)nn2-c2ncccc2Cl)ccc2c1S(=O)(=O)C(C)C2 (stereo not shown) [P.59]
> 80%: [1] | [2] | [3]

O=C(NC1(C2CC2)CC1)c1c(NC(=O)c2cc(C(F)(F)F)nn2-c2ncccc2Cl)c(Cl)cc2c1C(O)CC2 (stereo not shown) [P.51]
> 80%: [1] | [2] | [3]

CCc1cc2c(c(C(=O)NC(C)C)c1NC(=O)c1cc(Br)nn1-c1ncccc1Cl)OC(F)(F)O2 [P.34]
> 80%: [1] | [2] | [3]

Reference: US8399490B2, “Insecticides” (Syngenta Crop Protection LLC, priority 2007, dated 2013)
